One data set has as its target T1, hTLR7 (Homo sapiens, UniProt Q9NYK1).
T1 construct: host or cells: HEK-hTLR7-NF-κB-Luciferase cells
T1 sequence (Q9NYK1 27-1049): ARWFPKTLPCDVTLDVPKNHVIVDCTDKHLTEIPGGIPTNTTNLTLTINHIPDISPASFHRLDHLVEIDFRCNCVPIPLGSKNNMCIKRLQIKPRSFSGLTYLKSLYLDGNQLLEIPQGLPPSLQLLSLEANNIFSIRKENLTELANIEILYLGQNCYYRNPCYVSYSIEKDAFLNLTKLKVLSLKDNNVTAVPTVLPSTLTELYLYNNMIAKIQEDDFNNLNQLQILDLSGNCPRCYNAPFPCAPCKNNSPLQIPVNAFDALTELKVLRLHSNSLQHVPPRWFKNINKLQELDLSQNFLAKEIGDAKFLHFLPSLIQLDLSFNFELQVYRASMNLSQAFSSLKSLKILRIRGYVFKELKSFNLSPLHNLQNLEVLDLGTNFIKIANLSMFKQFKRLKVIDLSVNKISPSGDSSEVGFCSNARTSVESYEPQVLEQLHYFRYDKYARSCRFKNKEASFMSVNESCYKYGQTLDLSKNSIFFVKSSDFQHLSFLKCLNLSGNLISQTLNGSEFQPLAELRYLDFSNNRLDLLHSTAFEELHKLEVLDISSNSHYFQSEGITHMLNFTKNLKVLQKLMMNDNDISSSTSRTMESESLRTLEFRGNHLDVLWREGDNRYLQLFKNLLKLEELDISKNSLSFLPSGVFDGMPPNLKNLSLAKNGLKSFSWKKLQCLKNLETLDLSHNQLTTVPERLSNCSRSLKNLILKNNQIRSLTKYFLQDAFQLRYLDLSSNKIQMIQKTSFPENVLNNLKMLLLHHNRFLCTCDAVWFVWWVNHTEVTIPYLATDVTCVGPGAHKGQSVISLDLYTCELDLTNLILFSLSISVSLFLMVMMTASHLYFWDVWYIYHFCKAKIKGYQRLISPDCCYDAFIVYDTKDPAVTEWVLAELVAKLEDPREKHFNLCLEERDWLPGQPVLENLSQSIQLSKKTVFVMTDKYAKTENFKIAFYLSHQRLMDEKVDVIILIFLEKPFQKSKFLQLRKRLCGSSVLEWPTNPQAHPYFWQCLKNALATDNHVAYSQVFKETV
Nature of the data set: Agonistic effect on hTLR7, HEK-hTLR7-NF-κB-Luciferase reporter cells. In kind it is cell-based. The note with it: 16 hours. The text has this:
Experimental Example 3: Agonistic Effect of the Compound of the Invention on hTLR7
In this test, the luciferase in HEK-hTLR7-NF-κB-reporter cells was detected to test the activating effect of the compound of the invention on TLR7 signaling pathway, so as to evaluate the specificity of the agonistic effect of the compound on NLRP3 pathway.
Reagents: DMEM (High glucose); FBS (fetal bovine serum) (Gibco); Bright-Glo™ Luciferase detection kit (Promega)
Cells: HEK-hTLR7-NF-κB-Luciferase gene cells (human TLR7 NF-κB-luciferase reporter gene cells) (Nanjing Cobioer)
1) The HEK-hTLR7-NF-κB-Luciferase cells in a logarithmic growth phase were trypsinized and resuspended in the medium to a concentration of 2×10^6 cells/mL. 50 μL/well of the cell resuspension was added to a 96-well plate such that the number of cells in each well was […]. An appropriate amount of 10 mM DMSO solution of the compound to be tested was taken and diluted to a concentration of 2× test concentration with the medium. 50 μL/well was added to the cells in the 96-well plate, and the 96-well plate was incubated in an incubator at 37° C. and 5% CO2 for 16 hours. The medium was DMEM (High glucose) containing 10% FBS.
2) After the cell incubation, 100 μL/well of Bright-Glo™ Luciferase detection reagent was added, and the mixture was incubated at room temperature for 5 minutes. Relative luciferase activity unit (RLU) was read using a microplate reader.
3) The EC50 of effect of the tested compound to stimulate hTLR7 was fitted by the GraphPad software log(agonist) vs. response—Variable slope four-parameter method.

Data set [1] addresses T2, hERG potassium channel (Homo sapiens, UniProt Q12809).
The target in data set [2] is T2, hERG potassium channel. Put plainly: cell-based.
Data set [3] addresses T2, hERG potassium channel. Put plainly: in vitro.
In a further data set the target is T3, CYP1A2 (Homo sapiens, UniProt P05177).
T3 construct: purchased
T3 sequence (P05177 1-516): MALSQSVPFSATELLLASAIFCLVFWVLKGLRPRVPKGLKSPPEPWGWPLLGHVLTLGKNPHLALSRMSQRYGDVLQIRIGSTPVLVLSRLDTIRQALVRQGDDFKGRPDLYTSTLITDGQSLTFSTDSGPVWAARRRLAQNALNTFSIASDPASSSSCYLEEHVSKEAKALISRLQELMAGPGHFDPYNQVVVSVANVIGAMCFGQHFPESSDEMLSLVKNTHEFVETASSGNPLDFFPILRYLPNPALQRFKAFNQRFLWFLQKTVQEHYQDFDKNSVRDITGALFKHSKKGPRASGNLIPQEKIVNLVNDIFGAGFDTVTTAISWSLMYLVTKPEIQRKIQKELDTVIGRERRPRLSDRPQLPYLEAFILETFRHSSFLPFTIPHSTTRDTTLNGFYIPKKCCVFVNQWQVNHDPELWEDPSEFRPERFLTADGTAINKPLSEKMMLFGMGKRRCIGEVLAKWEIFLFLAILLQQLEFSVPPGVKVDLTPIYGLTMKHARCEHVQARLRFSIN
Nature of the data set: CYP enzyme inhibition test, P450-Glo CYP1A2 Screening System. It counts as in vitro ADME. Particulars: for inhibitory effect on CYP1A2: conclusion in words. How it is done: (§1) Experimental Example 6: CYP Enzyme Inhibition Test CYP450 is the most important enzyme system in drug metabolism. The enzymes involved in metabolism interact with drugs, and the most important ones are CYP1A2, CYP2D6 and CYP3A4. P450-Glo™ CYP1A2 Screening System, Vivid® CYP2D6 Cyan Screening Kit and Vivid® CYP3A4 Red Screening Kit were used in this test, and the inhibitory effects of the compounds on CYP1A2, CYP2D6 and CYP3A4 were determined according to the instructions of the kit.

In another data set the target is T4, CYP2D6 (Homo sapiens, UniProt P10635).
T4 construct: purchased
Put plainly: CYP enzyme inhibition test, Vivid CYP2D6 Cyan Screening Kit. It counts as in vitro ADME. Particulars: for inhibitory effect on CYP2D6: conclusion in words. The protocol:
as §1

The next data set deals with T5, CYP3A4 (Homo sapiens, UniProt P08684).
T5 construct: purchased
Put plainly: CYP enzyme inhibition test, Vivid CYP3A4 Red Screening Kit. In kind it is in vitro ADME. Particulars: for inhibitory effect on CYP3A4: conclusion in words. The protocol: as §1

Bounds are passed on as bounds.

A word on the EC50: it is the concentration at which the effect is half-maximal. A lower EC50 goes with higher potency in that assay. One may read the IC50 as the point on the concentration scale where inhibition reaches its midpoint. A higher IC50 goes with lower potency. By inhibition is commonly meant the drop in the measured response relative to a control, in per cent. Lower therefore signals a response near the control.

T5 sequence (P08684 whole entry): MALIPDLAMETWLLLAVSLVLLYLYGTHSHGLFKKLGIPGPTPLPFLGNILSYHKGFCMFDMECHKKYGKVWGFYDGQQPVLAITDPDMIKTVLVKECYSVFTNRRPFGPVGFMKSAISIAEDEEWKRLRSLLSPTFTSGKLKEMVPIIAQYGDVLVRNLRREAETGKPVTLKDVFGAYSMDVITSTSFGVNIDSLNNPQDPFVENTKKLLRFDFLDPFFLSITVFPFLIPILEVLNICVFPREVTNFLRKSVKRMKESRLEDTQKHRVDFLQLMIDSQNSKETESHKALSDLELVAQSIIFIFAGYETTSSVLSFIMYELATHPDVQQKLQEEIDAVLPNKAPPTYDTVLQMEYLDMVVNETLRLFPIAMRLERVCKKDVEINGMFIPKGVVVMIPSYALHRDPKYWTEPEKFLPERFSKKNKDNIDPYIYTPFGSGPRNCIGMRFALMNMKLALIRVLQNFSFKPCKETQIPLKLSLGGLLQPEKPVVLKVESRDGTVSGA
T4 sequence (P10635 whole entry): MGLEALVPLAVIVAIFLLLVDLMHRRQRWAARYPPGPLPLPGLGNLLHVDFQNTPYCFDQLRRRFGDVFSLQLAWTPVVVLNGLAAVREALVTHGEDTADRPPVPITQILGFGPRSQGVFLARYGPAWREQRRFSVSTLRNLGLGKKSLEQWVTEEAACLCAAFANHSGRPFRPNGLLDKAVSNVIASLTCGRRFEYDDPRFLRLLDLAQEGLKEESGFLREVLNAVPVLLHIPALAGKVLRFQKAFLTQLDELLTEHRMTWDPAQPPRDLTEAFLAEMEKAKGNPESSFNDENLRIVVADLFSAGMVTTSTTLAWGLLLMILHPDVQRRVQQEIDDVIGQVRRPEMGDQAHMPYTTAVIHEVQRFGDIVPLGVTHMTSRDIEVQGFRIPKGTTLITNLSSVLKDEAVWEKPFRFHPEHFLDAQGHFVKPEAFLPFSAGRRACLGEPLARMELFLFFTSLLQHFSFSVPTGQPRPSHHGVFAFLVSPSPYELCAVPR
T2 sequence (Q12809 whole entry): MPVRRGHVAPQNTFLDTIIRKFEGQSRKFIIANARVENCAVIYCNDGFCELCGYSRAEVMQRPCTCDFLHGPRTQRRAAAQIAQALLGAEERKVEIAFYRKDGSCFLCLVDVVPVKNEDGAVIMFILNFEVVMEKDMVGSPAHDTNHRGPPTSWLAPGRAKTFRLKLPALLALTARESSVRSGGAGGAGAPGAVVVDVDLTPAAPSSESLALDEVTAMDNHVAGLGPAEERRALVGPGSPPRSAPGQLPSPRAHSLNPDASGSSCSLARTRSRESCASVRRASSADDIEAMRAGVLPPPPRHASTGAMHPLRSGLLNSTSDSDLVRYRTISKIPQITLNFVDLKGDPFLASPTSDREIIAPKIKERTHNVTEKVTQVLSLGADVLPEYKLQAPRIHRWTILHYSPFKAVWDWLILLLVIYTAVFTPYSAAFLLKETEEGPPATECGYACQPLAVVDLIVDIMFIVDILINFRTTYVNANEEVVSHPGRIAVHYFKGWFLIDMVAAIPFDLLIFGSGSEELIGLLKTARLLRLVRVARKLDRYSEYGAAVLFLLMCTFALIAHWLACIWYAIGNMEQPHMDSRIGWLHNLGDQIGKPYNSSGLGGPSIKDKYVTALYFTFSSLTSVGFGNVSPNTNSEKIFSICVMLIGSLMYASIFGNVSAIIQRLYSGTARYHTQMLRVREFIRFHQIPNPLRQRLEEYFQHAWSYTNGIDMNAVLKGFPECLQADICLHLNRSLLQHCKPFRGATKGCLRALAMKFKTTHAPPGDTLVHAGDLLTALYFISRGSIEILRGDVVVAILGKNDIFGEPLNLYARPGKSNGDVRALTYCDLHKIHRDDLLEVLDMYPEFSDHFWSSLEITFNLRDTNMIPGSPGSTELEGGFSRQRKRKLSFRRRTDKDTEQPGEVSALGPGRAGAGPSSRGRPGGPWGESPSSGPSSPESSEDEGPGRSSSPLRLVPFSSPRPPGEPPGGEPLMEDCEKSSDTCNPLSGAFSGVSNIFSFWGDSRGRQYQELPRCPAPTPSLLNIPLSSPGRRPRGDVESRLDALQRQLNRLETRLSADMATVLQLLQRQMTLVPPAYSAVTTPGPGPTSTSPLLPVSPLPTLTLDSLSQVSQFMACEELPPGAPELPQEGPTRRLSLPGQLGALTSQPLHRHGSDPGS

As to `Nc1cc(NCC(F)F)c2sc(-c3ccn[nH]3)cc2n1` [Compound 116, N^7-(2,2-difluoroethyl)-2-(1H-pyrazol-5-yl)thieno[3,2-b]pyridine-5,7-diamine], the EC50 on hTLR7 is > 100 µM. In addition, the “inhibitory effect on hERG” value against hERG potassium channel [1] is “no apparent inhibitory effect”. Moreover, at hERG potassium channel [2], the IC50 was > 10 µM. For the same compound, the inhibition at 10 μM against hERG potassium channel [3] was found to be 18.5 ± 4.98%.

As to `Nc1cc(N[C@@H]2CC[C@H](O)C2)c2sc(-c3ccn[nH]3)cc2n1` [Compound 31, (1S,3R)-3-((5-amino-2-(1H-pyrazol-5-yl)thieno[3,2-b]pyridin-7-yl)amino)cyclopentanol], the 50% effective concentration (EC50) on hTLR7 was > 100 µM. Further, at CYP1A2, the IC50 was > 10 µM and the “inhibitory effect on CYP1A2” value is “no apparent inhibitory effects”. In addition, at CYP2D6, the half-maximal inhibitory concentration (IC50) was > 10 µM and the “inhibitory effect on CYP2D6” value was “no apparent inhibitory effects”. Moreover, at CYP3A4, the IC50 is > 10 µM and the “inhibitory effect on CYP3A4” value is given as “no apparent inhibitory effects”.

In the case of `COCCNc1cc(N)nc2cc(-c3ccn[nH]3)sc12` [Compound 100, N^7-(2-methoxyethyl)-2-(1H-pyrazol-5-yl)thieno[3,2-b]pyridine-5,7-diamine], at hTLR7, the EC50 is > 100 µM. The “inhibitory effect on hERG” value on hERG potassium channel [1] is reported as “no apparent inhibitory effect”. The IC50 against hERG potassium channel [2] is > 10 µM. The inhibition at 10 μM at hERG potassium channel [3] was found to be 5.42 ± 2.2%.

Turning to `COC(C)(C)CNc1cc(N)nc2cc(-c3ccn[nH]3)sc12` [Compound 111, N^7-(2′-methoxy-2′-methylpropyl)-2-(1H-pyrazol-5-yl)thieno[3,2-b]pyridine-5,7-diamine], the EC50 on hTLR7 is > 100 µM. In addition, at CYP1A2, the IC50 was > 10 µM and the “inhibitory effect on CYP1A2” value was “no apparent inhibitory effects”. Besides, on CYP2D6, the IC50 was > 10 µM and the “inhibitory effect on CYP2D6” value was “no apparent inhibitory effects”. On CYP3A4, the half-inhibitory concentration (IC50) is > 10 µM and the “inhibitory effect on CYP3A4” value is reported as “no apparent inhibitory effects”.

As for `Nc1cc(NCC2CCOCC2)c2sc(-c3ccn[nH]3)cc2n1` [Compound 120, 2-(1H-pyrazol-5-yl)-N^7-((tetrahydro-2H-pyran-4-yl)methyl)thieno[3,2-b]pyridine-5,7-diamine], at hTLR7, the EC50 was > 100 µM. Further, the “inhibitory effect on hERG” value on hERG potassium channel [1] is “no apparent inhibitory effect”. Besides, the IC50 on hERG potassium channel [2] is > 10 µM. Besides, at hERG potassium channel [3], the inhibition at 10 μM is 11.7 ± 0.7%.

In the case of `Nc1cc(NC2CCC(O)CC2)c2sc(-c3ccn[nH]3)cc2n1` (centres unmarked) [Compound 114, 4-((5-amino-2-(1H-pyrazol-5-yl)thieno[3,2-b]pyridin-7-yl)amino)-1-cyclohexanol], on hTLR7, the EC50 was > 100 µM. Also, on CYP1A2, the IC50 is > 10 µM and the “inhibitory effect on CYP1A2” value is “no apparent inhibitory effects”. Further, at CYP2D6, the IC50 is > 10 µM and the “inhibitory effect on CYP2D6” value is “no apparent inhibitory effects”. Further, at CYP3A4, the IC50 was > 10 µM and the “inhibitory effect on CYP3A4” value was “no apparent inhibitory effects”.

For `CC(C)(CO)CNc1cc(N)nc2cc(-c3ccn[nH]3)sc12` [Compound 115, 3-((5-amino-2-(1H-pyrazol-5-yl)thieno[3,2-b]pyridin-7-yl)amino)-2,2-dimethyl-1-propanol], at hTLR7, the EC50 was > 100 µM. Further, the “inhibitory effect on hERG” value against hERG potassium channel [1] is “no apparent inhibitory effect”. For the same compound, at CYP1A2, the IC50 is > 10 µM and the “inhibitory effect on CYP1A2” value is “no apparent inhibitory effects”. In addition, the IC50 against hERG potassium channel [2] was > 10 µM. Also, at CYP2D6, the IC50 is > 10 µM and the “inhibitory effect on CYP2D6” value is reported as “no apparent inhibitory effects”. Further, at CYP3A4, the IC50 is > 10 µM and the “inhibitory effect on CYP3A4” value is reported as “no apparent inhibitory effects”. In addition, the inhibition at 10 μM on hERG potassium channel [3] turned out to be 8.26 ± 3.66%.

With `Nc1cc(NC2COC2)c2sc(-c3ccn[nH]3)cc2n1` [Compound 112, N^7-(oxetan-3-yl)-2-(1H-pyrazol-5-yl)thieno[3,2-b]pyridine-5,7-diamine], on hTLR7, the EC50 is > 100 µM. Further, on CYP1A2, the IC50 is > 10 µM and the “inhibitory effect on CYP1A2” value was “no apparent inhibitory effects”. Further, at CYP2D6, the IC50 is > 10 µM and the “inhibitory effect on CYP2D6” value is given as “no apparent inhibitory effects”. In addition, at CYP3A4, the half-inhibitory concentration (IC50) was > 10 µM and the “inhibitory effect on CYP3A4” value was “no apparent inhibitory effects”.

For the origin of these results see US20220056043A1, “NITROGEN-CONTAINING FUSED CYCLIC COMPOUND, PREPARATION METHOD THEREFOR AND USE THEREOF” (SICHUAN KELUN-BIOTECH BIOPHARMACEUTICAL CO., LTD., priority 2019, published 2022).
